Experimental data: patent US5338874A, “Cis oxalato (trans 1-1,2-cyclohexanediamine) PT(II) having optically high purity” (Tanaka Kikinzoku Kogyo K.K., priority 1993, dated 1994)

Tested on: L1210
Assay: Tumor resistance against L1210 (i.p. transplanted, CDF1 mice), T/C
Type: in vivo
Parameters: key to Toxic mark (T: large weight loss): P: Effective (Over 125%); Toxic (Large Weight Loss)
Conditions: for Cured mice out of six / Toxic mark (T: large weight loss): i.p. on days 1, 5 and 9
Method: The test was conducted by prescribing L1210 in a peritoneal cavity of six CDF1 mice/one group (the number of transplanted cells is […] per mouse and prescribing the medicine in the poritoncal cavity on a first day, a fifth day and a ninth day.

## N[C@@H]1CCCC[C@H]1N.O=C([O-])C(=O)[O-].[Pt+2] (relative stereo) [Comp. Ex., cis-oxalate(trans-1-1,2-cyclohexanediamine) Pt(II), reference compound]
6.25 mg/kg
  Cured mice out of six: 1/6
12.5 mg/kg
  Cured mice out of six: 4/6
25 mg/kg
  Toxic mark (T: large weight loss): T
25 mg/kg, i.p. on days 1, 5 and 9, six CDF1 mice/group
  Tumor Resistance T/C (%): 81%

## N[C@@H]1CCCC[C@H]1N.O=C([O-])C(=O)[O-].[Pt+2] (relative stereo) [Example 1, cis-oxalato (trans-1-1,2-cyclohexanediamine) Pt(II)]
6.25 mg/kg
  Cured mice out of six: 3/6
6.25 mg/kg, listed as Example 2
  Cured mice out of six: 3/6
6.25 mg/kg, listed as Example 3
  Cured mice out of six: 3/6
12.5 mg/kg
  Cured mice out of six: 2/6
12.5 mg/kg, listed as Example 2
  Cured mice out of six: 2/6
12.5 mg/kg, listed as Example 3
  Cured mice out of six: 2/6
25 mg/kg
  Toxic mark (T: large weight loss): T
High optical purity compound
  Activity against tumor leukemia L1210 (in words): active against a tumor "leukomia L1210"
